# According to patent US20250188040A1, “PHARMACEUTICAL COMPOSITIONS COMPRISING WRN HELICASE INHIBITORS” (Vividion Therapeutics, Inc., priority 2022, published 2025):
# Read-outs that look alike come from different tables or passages of the source.
# Tests used:
# WRN C727 = target: T1, WRN C727 (Homo sapiens, UniProt Q14191); test: Target engagement, in vitro (lysate), OCI-AML2; assay type: binding; conditions: read-out: OCI-AML2 WRN C727 TE50 in vitro (lysate)
# T1 construct: endogenous in cells; host or cells: OCI-AML2
# T1 sequence (Q14191 whole entry): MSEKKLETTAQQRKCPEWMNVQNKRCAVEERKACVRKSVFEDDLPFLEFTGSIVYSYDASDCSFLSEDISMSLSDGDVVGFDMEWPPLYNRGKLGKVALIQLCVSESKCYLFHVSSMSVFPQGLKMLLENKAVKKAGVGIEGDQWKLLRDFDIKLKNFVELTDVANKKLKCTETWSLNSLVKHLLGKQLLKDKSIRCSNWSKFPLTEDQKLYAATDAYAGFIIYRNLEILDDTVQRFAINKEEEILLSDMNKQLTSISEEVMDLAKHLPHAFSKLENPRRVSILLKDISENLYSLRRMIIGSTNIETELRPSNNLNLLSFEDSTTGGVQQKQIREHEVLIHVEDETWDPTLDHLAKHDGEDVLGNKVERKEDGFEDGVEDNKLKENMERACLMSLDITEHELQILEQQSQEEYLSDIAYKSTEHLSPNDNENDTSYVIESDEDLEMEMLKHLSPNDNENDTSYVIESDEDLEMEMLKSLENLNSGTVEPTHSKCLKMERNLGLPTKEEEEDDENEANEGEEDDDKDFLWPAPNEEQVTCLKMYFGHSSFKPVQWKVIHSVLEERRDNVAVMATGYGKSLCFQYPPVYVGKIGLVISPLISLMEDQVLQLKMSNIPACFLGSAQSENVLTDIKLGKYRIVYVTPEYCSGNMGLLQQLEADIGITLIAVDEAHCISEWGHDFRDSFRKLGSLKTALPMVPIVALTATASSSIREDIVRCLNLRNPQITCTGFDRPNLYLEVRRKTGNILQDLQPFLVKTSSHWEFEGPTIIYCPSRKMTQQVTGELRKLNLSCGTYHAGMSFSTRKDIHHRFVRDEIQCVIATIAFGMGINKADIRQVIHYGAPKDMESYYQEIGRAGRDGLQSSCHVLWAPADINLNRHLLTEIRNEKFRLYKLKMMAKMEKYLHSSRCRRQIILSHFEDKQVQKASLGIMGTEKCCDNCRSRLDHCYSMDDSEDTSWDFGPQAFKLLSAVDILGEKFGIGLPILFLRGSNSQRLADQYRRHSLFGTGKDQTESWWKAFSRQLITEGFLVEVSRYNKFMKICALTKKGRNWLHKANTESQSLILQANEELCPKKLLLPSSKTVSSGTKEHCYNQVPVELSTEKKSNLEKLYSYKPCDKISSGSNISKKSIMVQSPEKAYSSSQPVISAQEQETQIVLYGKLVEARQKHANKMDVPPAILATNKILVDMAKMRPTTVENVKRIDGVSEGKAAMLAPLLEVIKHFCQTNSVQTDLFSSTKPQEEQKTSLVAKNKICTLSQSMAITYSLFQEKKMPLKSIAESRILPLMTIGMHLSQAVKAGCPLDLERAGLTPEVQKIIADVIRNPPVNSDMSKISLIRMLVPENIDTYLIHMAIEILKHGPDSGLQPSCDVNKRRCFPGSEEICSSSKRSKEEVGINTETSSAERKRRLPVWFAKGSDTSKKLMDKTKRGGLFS
# Procedure, shortened: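 Percent engagement of WRN C727 is expressed against DMSO-treated samples, measured by PRM mass spectrometry of streptavidin-enriched, probe-tagged tryptic peptides. Compound dose responses preceded probe labelling of solvent-exposed cysteines, in either living OCI-AML2 cells or their lysates.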
# SW480 cells = test: Cell growth assay (CellTiter-Glo 2.0), SW480 MSS cell line; conditions: Homo sapiens, SW480, 120 h, read-out: Cell Growth Inhibition GI50 SW480
# HCT 116 cells = test: Cell growth assay (CellTiter-Glo 2.0), HCT 116 MSI-H cell line; conditions: Homo sapiens, HCT-116, 120 h, read-out: Cell Growth Inhibition GI50 HCT-116
# [1] = target: hWRN(519-1227)_C-H3CV-GFP-10His (Homo sapiens, UniProt Q14191); test: Helicase Assay for WRN Inhibition (ATP-dependent, fluorescence based)
# Sequence of hWRN(519-1227)_C-H3CV-GFP-10His (Q14191 519-1227): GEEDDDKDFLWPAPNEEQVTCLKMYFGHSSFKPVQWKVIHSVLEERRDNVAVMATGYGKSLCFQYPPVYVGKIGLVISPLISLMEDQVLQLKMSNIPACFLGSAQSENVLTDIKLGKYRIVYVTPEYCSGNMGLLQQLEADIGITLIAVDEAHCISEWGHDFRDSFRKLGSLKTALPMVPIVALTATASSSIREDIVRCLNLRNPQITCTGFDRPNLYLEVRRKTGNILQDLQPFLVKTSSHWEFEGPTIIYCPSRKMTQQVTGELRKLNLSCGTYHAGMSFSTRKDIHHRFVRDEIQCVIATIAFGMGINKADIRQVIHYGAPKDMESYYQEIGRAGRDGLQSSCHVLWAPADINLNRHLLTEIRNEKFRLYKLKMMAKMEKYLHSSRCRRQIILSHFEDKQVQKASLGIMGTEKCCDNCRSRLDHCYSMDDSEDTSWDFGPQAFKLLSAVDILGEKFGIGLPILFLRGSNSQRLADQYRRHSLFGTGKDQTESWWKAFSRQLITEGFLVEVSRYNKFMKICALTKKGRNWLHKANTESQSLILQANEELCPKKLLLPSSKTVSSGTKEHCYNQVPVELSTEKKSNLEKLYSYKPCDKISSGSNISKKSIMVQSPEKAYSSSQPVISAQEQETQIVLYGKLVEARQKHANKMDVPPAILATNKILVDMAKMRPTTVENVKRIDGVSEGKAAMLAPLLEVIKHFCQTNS
# [2] = WRN Helicase IC50, 30 min preincubation with ATP, 30 min reaction
Structure (SMILES),IC50 (WRN C727),GI50 (SW480 cells),GI50 (HCT 116 cells),"IC50 [1, 2]",IC50 [1]
"CS(=O)(=O)/C=C/[C@@H](NC(=O)c1cnc(C2CC2)nc1Oc1ccccc1)C1CC(F)(F)C1 [Example 30, (S,E)-2-cyclopropyl-N-(1-(3,3-difluorocyclobutyl)-3-(methylsulfonyl)allyl)-4-phenoxypyrimidine-5-carboxamide]",1430 nM,16000 nM,120 nM,450 nM,–
"CSC[C@@H](/C=C/S(C)(=O)=O)NC(=O)c1cnc(C2CC2)nc1Oc1ccccc1 [Example 31, (R,E)-2-cyclopropyl-N-(4-(methylsulfonyl)-1-(methylthio)but-3-en-2-yl)-4-phenoxypyrimidine-5-carboxamide]",3240 nM,28000 nM,630 nM,880 nM,–
"CS(=O)(=O)/C=C/[C@@H](NC(=O)c1cnc(C2CC2)nc1Oc1ccccc1)C1CCOCC1 [Example 33, (S,E)-2-cyclopropyl-N-(3-(methylsulfonyl)-1-(tetrahydro-2H-pyran-4-yl)allyl)-4-phenoxypyrimidine-5-carboxamide]",4640 nM,> 100000 nM,1300 nM,2500 nM,–
"CS(=O)(=O)/C=C/[C@@H](NC(=O)c1cnc(CC2CC2)nc1Oc1ccccc1)C1CC1 [Example 36, (S,E)-N-(1-cyclopropyl-3-(methylsulfonyl)allyl)-2-(cyclopropylmethyl)-4-phenoxypyrimidine-5-carboxamide]",450 nM,17700 nM,59 nM,185 nM,–
"CS(=O)(=O)/C=C/[C@@H](NC(=O)c1cnc(C(F)C2CC2)nc1Oc1ccccc1)C1CC1 (stereo partly drawn) [Example 37, N—((S,E)-1-cyclopropyl-3-(methylsulfonyl)allyl)-2-(cyclopropylfluoromethyl)-4-phenoxypyrimidine-5-carboxamide]",450 nM,28600 nM,35.9 nM,240 nM,–
"C[C@@H](/C=C/S(C)(=O)=O)NC(=O)c1cnc(C2(C)CC2)nc1Oc1ccccc1 [Example 38, (S,E)-2-(1-methylcyclopropyl)-N-(4-(methylsulfonyl)but-3-en-2-yl)-4-phenoxypyrimidine-5-carboxamide]",800 nM,11700 nM,157 nM,434 nM,–
"CC1(c2ncc(C(=O)N3CC(=CS(C)(=O)=O)C3)c(Oc3ccccc3)n2)CC1 [Example 39, (2-(1-methylcyclopropyl)-4-phenoxypyrimidin-5-yl)(3-((methylsulfonyl)methylene)azetidin-1-yl)methanone]",640 nM,14000 nM,110 nM,–,240 nM
"C[C@@H](/C=C/S(C)(=O)=O)NC(=O)c1cnc(CC2(C)CC2)nc1Oc1ccccc1 [Example 40, (S,E)-2-((1-methylcyclopropyl)methyl)-N-(4-(methylsulfonyl)but-3-en-2-yl)-4-phenoxypyrimidine-5-carboxamide]",3480 nM,49000 nM,1200 nM,2700 nM,–
"CC1(Cc2ncc(C(=O)N3CC(=CS(C)(=O)=O)C3)c(Oc3ccccc3)n2)CC1 [Example 41, (2-((1-methylcyclopropyl)methyl)-4-phenoxypyrimidin-5-yl)(3-((methylsulfonyl)methylene)azetidin-1-yl)methanone]",2060 nM,33000 nM,720 nM,–,1400 nM
"C[C@@H](/C=C/S(C)(=O)=O)NC(=O)c1cnc(C2(c3ccccc3)CC2)nc1Oc1ccccc1 [Example 42, (S,E)-N-(4-(methylsulfonyl)but-3-en-2-yl)-4-phenoxy-2-(1-phenylcyclopropyl)pyrimidine-5-carboxamide]",4440 nM,5200 nM,355 nM,1700 nM,–
"CS(=O)(=O)/C=C/CNC(=O)c1cnc(C2CCC2)nc1Oc1ccccc1 [Example 43, (E)-2-cyclobutyl-N-(3-(methylsulfonyl)allyl)-4-phenoxypyrimidine-5-carboxamide]",18700 nM,7800 nM,670 nM,1500 nM,–
"CS(=O)(=O)/C=C/[C@@H](NC(=O)c1cnc(C2CCC2)nc1Oc1ccccc1)C1CC1 [Example 45, (S,E)-2-cyclobutyl-N-(1-cyclopropyl-3-(methylsulfonyl)allyl)-4-phenoxypyrimidine-5-carboxamide]",110 nM,13000 nM,36.7 nM,86 nM,–
"C[C@@H](/C=C/S(C)(=O)=O)NC(=O)c1cnc(CC2CCC2)nc1Oc1ccccc1 [Example 53, (S,E)-2-(cyclobutylmethyl)-N-(4-(methylsulfonyl)but-3-en-2-yl)-4-phenoxypyrimidine-5-carboxamide]",14500 nM,> 10000 nM,970 nM,3600 nM,–
"C[C@@H](/C=C/S(C)(=O)=O)NC(=O)c1cnc(CC2CCCC2)nc1Oc1ccccc1 [Example 54, (S,E)-2-(cyclopentylmethyl)-N-(4-(methylsulfonyl)but-3-en-2-yl)-4-phenoxypyrimidine-5-carboxamide]",50000 nM,> 10000 nM,770 nM,2600 nM,–
"C[C@@H](/C=C/S(C)(=O)=O)NC(=O)c1cnc(C2CC3(CC3)C2)nc1Oc1ccccc1 [Example 55, (S,E)-N-(4-(methylsulfonyl)but-3-en-2-yl)-4-phenoxy-2-(spiro[2.3]hexan-5-yl)pyrimidine-5-carboxamide]",8680 nM,6200 nM,150 nM,910 nM,–
"CC(C)(C)c1ncc(C(=O)N2CC(=CS(=O)(=O)C3CCOCC3)C2)c(Oc2ccccc2)n1 [Example 62, (2-(tert-butyl)-4-phenoxypyrimidin-5-yl)(3-(((tetrahydro-2H-pyran-4-yl)sulfonyl)methylene)azetidin-1-yl)methanone]",4090 nM,13200 nM,265 nM,–,650 nM
"COC[C@@H](/C=C/S(C)(=O)=O)NC(=O)c1cnc(C(C)(C)C)nc1Oc1ccccc1 [Example 63, (R,E)-2-(tert-butyl)-N-(1-methoxy-4-(methylsulfonyl)but-3-en-2-yl)-4-phenoxypyrimidine-5-carboxamide]",500 nM,31000 nM,30.6 nM,87.9 nM,–
"COC[C@H](/C=C/S(C)(=O)=O)NC(=O)c1cnc(C(C)(C)C)nc1Oc1ccccc1 [Example 64, (S,E)-2-(tert-butyl)-N-(1-methoxy-4-(methylsulfonyl)but-3-en-2-yl)-4-phenoxypyrimidine-5-carboxamide]",> 100000 nM,36000 nM,2300 nM,8600 nM,–
"CC(C)(C)c1ncc(C(=O)N[C@H](/C=C/S(C)(=O)=O)CC2CC2)c(Oc2ccccc2)n1 [Example 65, (S,E)-2-(tert-butyl)-N-(1-cyclopropyl-4-(methylsulfonyl)but-3-en-2-yl)-4-phenoxypyrimidine-5-carboxamide]",1170 nM,25400 nM,87 nM,300 nM,–
"CC(C)(C)c1ncc(C(=O)N[C@H](/C=C/S(C)(=O)=O)C2CCC2)c(Oc2ccccc2)n1 [Example 66, (S,E)-2-(tert-butyl)-N-(1-cyclobutyl-3-(methylsulfonyl)allyl)-4-phenoxypyrimidine-5-carboxamide]",380 nM,21800 nM,30.2 nM,113 nM,–
